For five compounds, Ki results are on record in BindingDB's records for doi:10.1021/jm00113a020 (Case Western Reserve University, 1991).

SMILES strings stand for the structures. pKi: −log10 of the molar value. Starred links: 1 amine or outer side, 2 acyl side, 3 side chain; linkers in the order of their positions; H or OH if unused. Residues, ends and D or L forms follow the SMILES beside them. Ethylenediamine = C(CN[*:2])N[*:1]; GABA = NCCCC(=O)O

The nature of this experiment: The compound was tested for binding activity towards Opioid receptor delta 1 in guinea pig brain membranes.

`NCCCC(=O)NCCNC(=O)[C@H](Cc1ccccc1)NC(=O)CNC(=O)CNC(=O)[C@@H](N)Cc1ccc(O)cc1` (H-YGGF-{Ethylenediamine-GABA}): the pKi – broadly, −log10 of the Ki, conventionally taken in molar units – was 5.00.

`NCCCC(=O)NCCCN(CCCNC(=O)[C@H](Cc1ccccc1)NC(=O)CNC(=O)CNC(=O)[C@@H](N)Cc1ccc(O)cc1)C(=O)CCCN` (HELM PEPTIDE1{Y.G.G.F.[NCCCC(=O)NCCCN(CCCN[*:1])C(=O)CCCN]}$$$$V2.0): the negative logarithm of the Ki (pKi) is 5.07.

As to `NCCCC(=O)NCCN(CCNC(=O)[C@H](Cc1ccccc1)NC(=O)CNC(=O)CNC(=O)[C@@H](N)Cc1ccc(O)cc1)C(=O)CCCN` (HELM PEPTIDE1{Y.G.G.F.[NCCCC(=O)NCCN(CCN[*:1])C(=O)CCCN]}$$$$V2.0), the pKi was 4.64.

On to `NCCCC(=O)NCCN(CCN(CCNC(=O)[C@H](Cc1ccccc1)NC(=O)CNC(=O)CNC(=O)[C@@H](N)Cc1ccc(O)cc1)C(=O)CCCN)C(=O)CCCN` [4-Amino-N-[2-(4-amino-butyrylamino)-ethyl]-N-[2-((4-amino-butyryl)-{2-[2-(2-{2-[2-amino-3-(4-hydroxy-phenyl)-propionylamino]-acetylamino}-acetylamino)-3-phenyl-propionylamino]-ethyl}-amino)-ethyl]-butyramide] (HELM PEPTIDE1{Y.G.G.F.[NCCCC(=O)NCCN(CCN(CCN[*:1])C(=O)CCCN)C(=O)CCCN]}$$$$V2.0), for which the pKi was less than 5.00.

For the compound `CC[C@H](C)[C@H](NC(=O)[C@H](CCCN=C(N)N)NC(=O)[C@H](CCCN=C(N)N)NC(=O)[C@H](CC(C)C)NC(=O)[C@H](Cc1ccccc1)NC(=O)CNC(=O)CNC(=O)[C@@H](N)Cc1ccc(O)cc1)C(=O)N[C@@H](CCCN=C(N)N)C(=O)N1CCC[C@H]1C(=O)N[C@@H](CCCCN)C(=O)N[C@@H](CC(C)C)C(=O)N[C@@H](CCCCN)C(=O)O` [Dynorphin A (1-13)], the pKi is 7.80.
